# Measured values: paper PMC8261488, “Contraceptive progestins with androgenic properties stimulate breast epithelial cell proliferation” (EMBO Molecular Medicine, 2021)
# Legend:
# [1] = tested on: Wnt4; assay: Wnt4 transcript levels by RT-PCR in mouse mammary organoids stimulated ex vivo; assay type: cell-based; details: for Wnt4 transcript levels over vehicle-treated control: BalbC females, 6 h of stimulation
# Procedure: (§1) Next, we stimulated mouse mammary organoids derived from several BalbC females with R5020 or different progestins (Fig 1A). […] No significant change in Rankl and Wnt4 transcript levels was detected during the first 2 h (Appendix Fig S1D). By 6 h of R5020 stimulation, Rankl and Wnt4 transcript levels increased 22.4 and 5.8‐fold over the vehicle‐treated control, respectively.
# (§2) Animal experiments were performed in accordance with protocol approved by the Service de la Consommation et des Affaires vétérinaires of Canton de Vaud (VD 1865.3, VD 1865.4). NOD. Cg‐Prkdc^scid Il2rg^tm1Wjl/SzJ mice (Charles River), BalbC, and C57Bl6 breeders were purchased from Jackson Laboratories. Mammary glands were isolated from 18‐ to 35‐week‐old mice, lymph nodes removed, minced with surgical blades, and digested in DMEM/F12, 1% penicillin/streptomycin B with collagenase A 0.25 mg/ml (Roche). […] Fat was removed, and pellet containing organoids washed with phosphate‐buffered saline (PBS), resuspended 5 min in 3 ml red cell blood lysis buffer and washed twice with PBS.
# (§3) Human breast microstructures and mouse organoids were homogenized in Trizol (Invitrogen). Aqueous phase containing RNA was chloroform extracted and processed with miRNeasy extraction kit (Qiagen). cDNA was synthesized using random p(dN)6 primers (Roche) and MMLV reverse transcriptase (Invitrogen). SYBR Green PCR Core Reagent System (Qiagen) was used for semi‐quantitative real time (RT‐PCR) using the following primers.
# [2] = tested on: HBECs; assay: MKI67/Ki67 expression in xenografted HBECs; assay type: in vivo, human; details: 21 days pellets; for cell proliferation (KI67 and hECAD double+ cells), overall analysis: HBECs from 11 different patients; for cell proliferation (KI67 and hECAD double+ cells): one mammoplasty (M310)
# Source text: (§4) Next, we sought for a readout of in vivo cell proliferation different from radiance. […] Given that MKI67 expression could replace the luciferase measurements as a readout, we used a modified experimental setup for a second round of experiments. We derived HBECs from viably frozen mammoplasty samples (Appendix Table S3) and engrafted them to different mammary glands of NSG females without viral infection. Four months later, the 24 recipient females, each engrafted with 5 different mammoplasties received pellets containing either vehicle, progesterone, or 1 of 6 progestins for 21 days. At sacrifice, xenografted glands were histologically sectioned and cell proliferation was quantified using co‐IF with anti‐MKI67 and anti‐hECAD antibodies. For one of the mammoplasties, we were able to obtain measurements for all experimental conditions (Fig 5I). […] For the remaining mammoplasties, between 3 and 8 different experimental conditions were successfully quantified (Appendix Table S4). […] CPA (P < 0.0001) decreased proliferation, whereas CMA and DSP had no effect (Fig 5K). As AR signaling increases AR protein levels, we performed co‐IF for AR and hECAD as another means to assess AR signaling activity.
# (§5) Tissues were fixed for 2 h at room temperature in 4% paraformaldehyde and paraffin‐embedded. Dewaxed and rehydrated paraffin sections were pretreated in 10 mM Na citrate (pH 6.0) at 95° for 20 min. Blocking was performed with 1% BSA for 60 min. Primary antibodies used were as follows: Ki67 (rabbit α‐Ki67, clone Sp6, Spring Amsbio, dilution 1:200), ER (rabbit α‐ER, clone Sp1, Zytomed RTU), PR (rabbit α‐PR, clone 1E2, Ventana RTU), AR (rabbit α‐AR, clone SP107, Thermo Fisher, diluted 1:200), CK7 (rabbit α‐CK7, clone Sp52, Abcam, diluted 1:500), CK19 (mouse KS19.2 (Z105.6), American Research Products Inc. (diluted 1:50), and mouse α‐ECAD (clone G‐10, sc‐8426, diluted 1:100). For IHC, chromogenic revelation was performed with ChromoMap DAB kit (Roche Diagnostics, Switzerland) and sections were counterstained with Mayer’s hematoxylin. For fluorescence microscopy, nuclei were counterstained with DAPI (Sigma). IHC for ER, PR, and AR was performed on Discovery Ventana ULTRA (44). IHC images were acquired on Leica DM 2000 with Leica DFC450 C camera. IF images were acquired on Zeiss LSM700 confocal microscope. Slides were scanned with Olympus VS120‐L100 slide scanner with 20×/0.75 objective and Pike F505 C Color camera. Images were loaded into QuPath using the BioFormats extension (Bankhead et al, 2017).
# [3] = tested on: HBECs; assay: In vivo growth of intraductal HBEC xenografts measured by radiance; details: 60 days of treatment, subcutaneous pellets
# Source text: To compare the effects of progesterone and different progestins on HBECs in vivo, we infected single cell suspensions obtained from fresh reduction mammoplasty specimens with GFP‐luciferase2‐expressing lentiviruses. The infected cell mixture was grafted intraductally to up to 5 glands of as many recipients as possible. The engraftment and growth of the xenografted cells were monitored weekly by in vivo imaging. When radiance reached > 10E07 on average per mammary gland, 60‐day‐release pellets were implanted subcutaneously, usually within 3–10 weeks after cell injection. At sacrifice, blood was collected and plasma levels of the administered compounds as well as endogenous steroid hormones were determined by liquid chromatography‐mass spectrometry (LC‐MS) (Laszlo et al, 2019).
# Next, the in vivo growth of HBEC xenografts stimulated with progesterone or different progestins was analyzed. […] In addition, the fold change radiance of treated versus untreated samples at endpoint was calculated (Fig 5A–C).
# Mice were anesthetized by intraperitoneal injection with 10 mg/kg xylazine and 90 mg/kg ketamine (Graeub) and injected intraductally with 10 μl cell suspension per gland. Bioluminescence imaging was performed as described (Sflomos et al, 2016). After 3–10 weeks, when bioluminescence from individual glands reached 10^7 total flux (p/s/cm2/sr), animals were assigned to different treatment groups and hormone pellets implanted subcutaneously. Enzalutamide (Selleckchem, Catalog No. S1250) dissolved in 15% DMSO in PEG300 was injected intraperitoneally 3 times/week at 30 mg/kg.
# Pellets were prepared by mixing the required amount of part A, MP3745/E81949 and part B, MP3744/E81950 of low consistency silicon elastomer (MED‐4011) and hormone powder to homogeneity. Mix was transferred to a syringe and incubated at 37°C overnight. The silicon‐hormone mass was removed from the syringe and cut to pieces, as described (Duss et al, 2007). The original protocol was adapted for different doses as described below.
# [4] = tested on: Rankl; assay: Rankl transcript levels by RT-PCR in mouse mammary organoids stimulated ex vivo; assay type: cell-based; details: for Rankl transcript levels over vehicle-treated control: BalbC females, 6 h of stimulation
# Procedure: as §1, §2, §3
# [5] = tested on: AR; assay: Percentage of AR+ cells in xenografted HBECs by co-IF for AR and hECAD; assay type: in vivo, human; details: 21 days pellets, HBECs from 11 different patients
# Source text: as §4, §5
# [6] = tested on: AR; parameters: method as in earlier work; details: various assays, ref Fuhrmann et al, 1995, Muhn et al, Bouchard, 2005, Mishell, 2008, Schneider et al, 2009, Africander et al, 2011, Louw‐du Toit et al, 2017; cited from earlier work
# [7] = tested on: endogenous hormone levels in mice; assay: Endogenous steroid hormone plasma levels in treated host mice by LC-MS; assay type: in vivo, mouse; details: xenografted NSG females with pellets
# Source text: Next, we assessed whether progesterone and progestins differentially affected endogenous hormone levels in mice. Plasma 17‐β‐estradiol levels were not affected by any of the treatments (Fig 4H). […] Plasma testosterone levels were not altered by any treatment with the exception of DSP, which decreased them (Fig 4H). Thus, prolonged exposures to progestins differentially affect endogenous progesterone plasma levels and DSP decreases testosterone plasma levels in host mice.
# [8] = tested on: women; details: women taking androgenic progestins; ref Rossouw et al, 2002; cited from earlier work
# [9] = BalbC-derived organoids, 24 h of stimulation
Structure (SMILES),Wnt4 transcript levels over vehicle-treated control [1],"Wnt4 transcript induction [1, 9]","Wnt4 transcript induction ([1]; C57Bl/6 mice, 6 h, 20 nM)","cell proliferation (KI67 and hECAD double+ cells), overall analysis [2]",cell proliferation (KI67 and hECAD double+ cells) [2],growth (course of radiance) of engrafted HBECs versus control [3],relative radiance at endpoint over control (FC) [3] [fold],Rankl transcript levels over vehicle-treated control [4],"Rankl transcript induction [4, 9]","Rankl transcript induction ([4]; C57Bl/6 mice, 6 h, 20 nM)",percentage of AR+ cells (AR index) [5],androgenic / anti-androgenic activity [6],endogenous progesterone plasma levels (estrous cycle-related variation) [7],plasma testosterone levels [7],breast cancer risk [8]
"CC(=O)O[C@]1(C(C)=O)CC[C@H]2[C@@H]3C=C(Cl)C4=CC(=O)CC[C@]4(C)[C@H]3CC[C@@]21C [CMA, chlormadinone acetate]",did not alter Wnt4 transcript levels,no effect,did not alter Wnt4 transcript levels,no effect,no effect,Neither CMA nor CPA had any effect on the growth,0.7,failed to affect Rankl transcript levels at all,no effect,failed to increase Rankl transcript levels,no effect,anti‐androgenic activity,tendency toward higher average level of progesterone,,
"CC(=O)O[C@]1(C(C)=O)CC[C@H]2[C@@H]3C=C(Cl)C4=CC(=O)[C@@H]5C[C@@H]5[C@]4(C)[C@H]3CC[C@@]21C [CPA, cyprotherone acetate]",did not alter Wnt4 transcript levels,no effect,2 fold,decreased,decreased,Neither CMA nor CPA had any effect on the growth,0.7,failed to affect Rankl transcript levels at all,no effect,failed to increase Rankl transcript levels,decreased,anti‐androgenic activity,did not affect,,
"C[C@]12CCC(=O)C=C1[C@@H]1C[C@@H]1[C@H]1[C@@H]3[C@@H]4C[C@@H]4[C@@]4(CCC(=O)O4)[C@@]3(C)CC[C@@H]12 [DSP, drospirenone]",did not alter Wnt4 transcript levels,no effect,did not alter Wnt4 transcript levels,no effect,no effect,failed to affect,1.4,failed to affect Rankl transcript levels at all,no effect,failed to increase Rankl transcript levels,decreased,anti‐androgenic activity,suppressed,decreased,
CC(=O)O[C@]1(C(C)=O)CC[C@H]2[C@@H]3C[C@H](C)C4=CC(=O)CC[C@]4(C)[C@H]3CC[C@@]21C [MPA],,,,,,,,,,,,,,,elevated breast cancer risk
